{"source": "patent US20260284051A1", "about": "“METHIONINE ADENOSYLTRANSFERASE 2A (MAT2A) INHIBITOR COMBINATIONS AND USES THEREOF” (INSILICO MEDICINE IP LIMITED, priority 2023, published 2026)"}
{"tested_on": "NCI-H838 MTAP null xenografts", "experiment": "Efficacy study of NCI-H838 human lung cancer xenograft model in NOD SCID mice", "type": "in vivo", "conditions": "MRTX1719 50 mg/kg QD", "source_text": "(§1) Efficacy Study of NCI-H838 Human Lung Cancer Xenograft Model in NOD SCID Mice Methods:\n(§2) The NCI-H838 cancer cells were maintained in vitro with RPMI-1640 medium supplemented with 10% fetal bovine serum at 37TC in an atmosphere of 5% CO2 in the air. The cells in exponential growth phase were harvested and quantitated by cell counter before tumor inoculation.\n(§3) NOD SCID mice, female, 6-8 weeks, weighing approximately 20-22 g, All the mice were purchased from Shanghai Lingchang Bio-Tech Co., Ltd.\n(§4) Each mouse was inoculated subcutaneously at the right flank with NCI-H838 cells in a 0.1 mL of PBS mixed with Matrigel (1:1) for tumor development (5×10^6 cells/mouse). Dosing was started when the average tumor size reached approximately ~150 mm^3 for the tumor efficacy study with tool and med chem molecules to look for efficacy vs vehicle tumor growth.\n(§5) Mean tumor volume at dosing start was approximately 146.51 mm^3, with six mice randomized to each treatment group. In the NCI-H838 MTAP null tumor model, mice were dosed orally, once per day (QD) with vehicle, once per day (QD) with Compound 1 at 3, 10 mg/kg, mice were intravenous, once per day (QD) with PRMT5 inhibitor MRTX1719 at 50 mg/kg, or Compound 1 combined with MRTX1719 at each dose level.", "units": {"TGI (%)": "%"}}
{"smiles": "Cn1ncc(-c2ccc3c(=O)[nH]nc(CN)c3c2)c1-c1c(F)c(Cl)cc(OC2CC2)c1C#N", "note": "[MRTX1719, reference compound]", "TGI (%)": 81.5}
{"tested_on": "NCI-H838 MTAP null xenografts", "experiment": "Efficacy study of NCI-H838 human lung cancer xenograft model in NOD SCID mice", "type": "in vivo", "conditions": "MRTX1719 50 mg/kg QD; Mean ± SD", "source_text": "as §1, §2, §3, §4, §5", "units": {"Tumor volume (mm^3) Final (mean)": "mm^3"}}
{"smiles": "Cn1ncc(-c2ccc3c(=O)[nH]nc(CN)c3c2)c1-c1c(F)c(Cl)cc(OC2CC2)c1C#N", "note": "[MRTX1719, reference compound]", "Tumor volume (mm^3) Final (mean)": "501 ± 69"}
{"molecular_target": "MAT2A (Homo sapiens, UniProt P31153)", "sequence (P31153 whole entry, species assumed)": "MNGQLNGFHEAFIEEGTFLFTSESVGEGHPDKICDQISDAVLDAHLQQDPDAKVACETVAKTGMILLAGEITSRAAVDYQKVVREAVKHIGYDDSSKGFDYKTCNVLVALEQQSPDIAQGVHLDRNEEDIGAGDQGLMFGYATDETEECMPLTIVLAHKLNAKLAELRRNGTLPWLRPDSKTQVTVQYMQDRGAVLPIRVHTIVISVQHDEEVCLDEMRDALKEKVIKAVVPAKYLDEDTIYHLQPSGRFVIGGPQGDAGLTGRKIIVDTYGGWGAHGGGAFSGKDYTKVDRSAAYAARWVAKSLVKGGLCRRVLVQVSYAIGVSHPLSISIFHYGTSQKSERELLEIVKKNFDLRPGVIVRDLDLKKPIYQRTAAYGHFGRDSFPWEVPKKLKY", "experiment": "MAT2A Biochemical Assay", "conditions": "read-out: MAT2A enzymatic IC50", "description": "Example A: MAT2A Biochemical Assay\nCompounds described herein were tested as follows:\n• (1). Prepared 1×Assay buffer. • (2). Preparation of compound concentration gradient: the compounds test condition were […], 3-fold dilution, 10 doses, singlet or duplicate. 100x concentration compounds were prepared in 384-well plate. Then used Echo 550 to transfer 250 nl to a 384-reaction plate for later use. Added 250 nl of 100% DMSO to the negative and positive control wells. • (3). Prepared 1.67× final concentration enzyme solution with 1×Assay buffer. • (4). Added 15 μl of 1.67× Enzyme solution to the compound wells and positive control wells; added 15 μl of 1×Assay buffer to the negative control wells. • (5). Centrifuged at 1000 rpm for 30 seconds and incubate for 15 minutes. • (6). Prepared 2.5× final concentration Substrate mix solution with 1×Assay buffer. • (7). Added 10 μl of 2.5× final concentration Substrate mix solution to start the reaction. • (8). Centrifuged at 1000 rpm for 30 seconds and incubate for 150 minutes. • (9). Added […] Biomol Green to stop the reaction, centrifuge at 1000 rpm for 30 seconds and incubate for 15 minutes. read O.D.620, process data.\n• (1) Using GraphPad Prism 5.\n[formula] • (3) Max signal was obtained from the positive control wells. • (4) Min signal was obtained from the negative control wells.", "units": {"IC50": "nM"}}
{"smiles": "C#CCCCNc1nc(=O)n(-c2cccnc2)c2cc(C(F)(F)F)ccc12", "note": "[Example 6]", "IC50": "< 50"}
{"smiles": "C#CCN(C)c1nc(=O)n(-c2cccnc2)c2cc(C(F)(F)F)ccc12", "note": "[Example 51]", "IC50": "< 50"}
{"smiles": "C=CCNc1nc(=O)n(-c2cccnc2)c2cc(Cl)cc(OC)c12", "note": "[Example 73]", "IC50": "< 50"}
{"smiles": "C#CC1(Nc2nc(=O)n(-c3cnccn3)c3cc(Cl)cc(OC)c23)CC1", "note": "[Example 24]", "IC50": "< 50"}
{"smiles": "C#CC1(Nc2nc(=O)n(-c3cccnc3)c3cc(Cl)ccc23)CC1", "note": "[Example 4]", "IC50": "< 50"}
{"smiles": "C#CCNc1nc(=O)n(-c2cnccn2)c2cc(C(F)(F)F)cc(OC)c12", "note": "[Example 54]", "IC50": "< 50"}
{"smiles": "C=CCNc1nc(=O)n(-c2cccnc2C)c2cc(Cl)cc(OC)c12", "note": "[Example 74]", "IC50": "< 50"}
{"smiles": "C#CC1(Nc2nc(=O)n(-c3cnccn3)c3cc(C(F)(F)F)ccc23)CC1", "note": "[Example 69]", "IC50": "< 50"}
{"smiles": "C#CC1(Nc2nc(=O)n(-c3cccnc3C)c3cc(Cl)cc(OC)c23)CC1", "note": "[Example 27]", "IC50": "< 50"}
{"smiles": "C#CC1(Nc2nc(=O)n(-c3cccnc3)c3cc(C(F)(F)F)cnc23)CC1", "note": "[Example 56]", "IC50": "> 1000"}
{"smiles": "C#CCNc1nc(=O)n(-c2cccnc2)c2cc(Br)ccc12", "note": "[Example 18]", "IC50": "< 50"}
{"smiles": "O=c1nc(NCC#CC2CC2)c2ccc(Cl)cc2n1-c1cccnc1", "note": "[Example 2]", "IC50": "< 50"}
{"smiles": "C#CCNc1nc(=O)n(-c2nccnc2C)c2cc(C(F)(F)F)cc(OC)c12", "note": "[Example 48]", "IC50": "< 50"}
{"smiles": "C#CCNc1nc(=O)n(-c2cccnc2)c2cc(C(F)(F)F)cc(OC)c12", "note": "[Example 34]", "IC50": "< 50"}
{"smiles": "C#CC(C)Nc1nc(=O)n(-c2cccnc2C)c2cc(Cl)cc(OC)c12", "note": "(stereo not drawn) [Example 26]", "IC50": "< 50"}
{"smiles": "C#CC1(Nc2nc(=O)n(-c3cccnc3C)c3cc(Cl)cc(F)c23)CC1", "note": "[Example 31]", "IC50": "< 50"}
{"smiles": "C#CCNc1nc(=O)n(-c2cccnn2)c2nc(C(F)(F)F)ccc12", "note": "[Example 63]", "IC50": "< 50"}
{"smiles": "C#CCNc1nc(=O)n(-c2cccnc2)c2nc(C(F)(F)F)ncc12", "note": "[Example 61]", "IC50": "< 50"}
{"smiles": "C#CC1(Nc2nc(=O)n(-c3cccnc3C)c3cc(C(F)(F)F)cc(OC)c23)CCC1", "note": "[Example 50]", "IC50": "< 50"}
{"smiles": "C#CC1(Nc2nc(=O)n(-c3cccnc3)c3cc(Cl)cc(OC)c23)CC1", "note": "[Example 66]", "IC50": "< 50"}
{"smiles": "C#CC1(Nc2nc(=O)n(-c3cccnc3)c3cc(C(F)(F)F)cc(OC)c23)CC1", "note": "[Example 47]", "IC50": "< 50"}
{"smiles": "C#CCNc1nc(=O)n(-c2c(C)ccnc2C)c2cc(C(F)(F)F)ccc12", "note": "[Example 52]", "IC50": "< 50"}
{"smiles": "C#CC(C)Nc1nc(=O)n(-c2cccnc2)c2cc(C(F)(F)F)ccc12", "note": "(stereo not drawn) [Example 64]", "IC50": "< 50"}
{"smiles": "C#CC1(Nc2nc(=O)n(-c3nccnc3C)c3cc(Cl)cc(OC)c23)CC1", "note": "[Example 25]", "IC50": "< 50"}
{"smiles": "C#CCNc1nc(=O)n(-c2cccnc2C)c2cc(Cl)cc(F)c12", "note": "[Example 30]", "IC50": "< 50"}
{"smiles": "C#CC(C)Nc1nc(=O)n(-c2cccnc2)c2cc(C(F)(F)F)cc(OC)c12", "note": "(stereo not drawn) [Example 35]", "IC50": "< 50"}
{"smiles": "C#CCNc1nc(=O)n(-c2cnccn2)c2cc(C(F)(F)F)ccc12", "note": "[Example 53]", "IC50": "< 50"}
{"smiles": "C#CCNc1nc(=O)n(-c2cccnc2C)c2cc(C(F)(F)F)ccc12", "note": "[Example 33]", "IC50": "< 50"}
{"smiles": "C#CCNc1nc(=O)n(-c2cccnc2)c2cc(Cl)ccc12", "note": "[Example 1]", "IC50": "< 50"}
{"smiles": "C=CC1(Nc2nc(=O)n(-c3cccnc3C)c3cc(Cl)cc(OC)c23)CC1", "note": "[Example 75]", "IC50": "< 50"}
{"smiles": "C#CCNc1nc(=O)n(-c2cccnc2C)c2cc(Cl)cc(OC)c12", "note": "[Example 22]", "IC50": "< 50"}
{"smiles": "C#CC1(Nc2nc(=O)n(-c3cccnc3C)c3cc(C(F)(F)F)ccc23)CC1", "note": "[Example 46]", "IC50": "< 50"}
{"smiles": "C#CC1(Nc2nc(=O)n(-c3cccnc3C)c3cc(C(F)(F)F)cc(OC)c23)CC1", "note": "[Example 49]", "IC50": "< 50"}
{"smiles": "C#CC1CCN(c2nc(=O)n(-c3ccccc3Cl)c3cc(Cl)ccc23)CC1", "note": "[Example 13]", "IC50": "> 1000"}
{"smiles": "C#CCNc1nc(=O)n(-c2cccnc2C)c2cc(Cl)ccc12", "note": "[Example 15]", "IC50": "< 50"}
{"smiles": "C=CCNc1nc(=O)n(-c2cccnc2C)c2cc(C(F)(F)F)cc(OC)c12", "note": "[Example 77]", "IC50": "< 50"}
{"smiles": "C#CCNc1nc(=O)n(-c2ccccc2Cl)c2cc(Cl)ccc12", "note": "[Example 10]", "IC50": "< 50"}
{"smiles": "C#CC1(Nc2nc(=O)n(-c3cccnc3)c3nc(C(F)(F)F)ccc23)CC1", "note": "[Example 68]", "IC50": "< 50"}
{"smiles": "C#CCCNc1nc(=O)n(-c2ccccc2Cl)c2cc(Cl)ccc12", "note": "[Example 8]", "IC50": "< 50"}
{"smiles": "C#CCNc1nc(=O)n(-c2cccnc2)c2cc(C(F)(F)F)ccc12", "note": "[Example 7]", "IC50": "< 50"}
{"smiles": "C#CCNc1nc(=O)n(-c2cccnc2C)c2nc(C(F)(F)F)cc(OC)c12", "note": "[Example 42]", "IC50": "< 50"}
{"smiles": "C#CCNc1nc(=O)n(-c2cccnc2)c2cc(Cl)cc(F)c12", "note": "[Example 29]", "IC50": "< 50"}
{"smiles": "C#CCNc1nc(=O)n(-c2nccnc2C)c2cc(Cl)cc(OC)c12", "note": "[Example 23]", "IC50": "< 50"}
{"smiles": "C#CCNc1nc(=O)n(-c2cnccn2)c2cc(Cl)cc(OC)c12", "note": "[Example 21]", "IC50": "< 50"}
{"smiles": "C#CCNc1nc(=O)n(-c2cccnc2C)c2cc(Br)cc(OC)c12", "note": "[Example 19]", "IC50": "< 50"}
{"smiles": "C#CCNc1nc(=O)n(-c2cccnc2C)c2cc(C(F)(F)F)cc(OC(F)F)c12", "note": "[Example 40]", "IC50": "< 50"}
{"smiles": "C#CCNc1nc(=O)n(-c2cnccn2)c2cc(Cl)ccc12", "note": "[Example 17]", "IC50": "< 50"}
{"smiles": "C#CC(C)Nc1nc(=O)n(-c2cccnc2C)c2cc(C(F)(F)F)cc(OC)c12", "note": "(stereo not drawn) [Example 37]", "IC50": "< 50"}
{"smiles": "C=CCNc1nc(=O)n(-c2cccnc2)c2cc(C(F)(F)F)ccc12", "note": "[Example 76]", "IC50": "< 50"}
{"smiles": "C#CCNc1nc(=O)n(-c2cccnc2)c2nc(C(F)(F)F)ccc12", "note": "[Example 57]", "IC50": "< 50"}
{"smiles": "C#CCNc1nc(=O)n(-c2cccnc2C(C)C)c2cc(C(F)(F)F)ccc12", "note": "[Example 45]", "IC50": "< 50"}
{"smiles": "C#CCNc1nc(=O)n(-c2cccnc2)c2cc(C(F)(F)F)cc(OCF)c12", "note": "[Example 38]", "IC50": "< 50"}
{"smiles": "C#CC1(Nc2nc(=O)n(-c3cccnc3C)c3cc(Cl)cc(OC)c23)CCC1", "note": "[Example 28]", "IC50": "< 50"}
{"smiles": "C#CCNc1nc(=O)n(-c2cccnc2)c2cc(Cl)cc(OC)c12", "note": "[Example 20]", "IC50": "< 50"}
{"smiles": "C#CC1(Nc2nc(=O)n(-c3cccnc3C)c3cc(Cl)ccc23)CC1", "note": "[Example 16]", "IC50": "< 50"}
{"smiles": "O=c1nc(NCC#CCN2CCOCC2)c2ccc(C(F)(F)F)cc2n1-c1cccnc1", "note": "[Example 14]", "IC50": "< 50"}
{"smiles": "C#CC1(Nc2nc(=O)n(-c3cccnc3)c3cc(C(F)(F)F)ccc23)CC1", "note": "[Example 67]", "IC50": "< 50"}
{"smiles": "C#CC1(Nc2nc(=O)n(-c3cccnn3)c3nc(C(F)(F)F)ccc23)CC1", "note": "[Example 70]", "IC50": "< 50"}
